Consider 15 compounds from patent US20120088759A1, “THIAZOLIDIN-4-ONE AND [1,3]-THIAZINAN-4-ONE COMPOUNDS AS OREXIN RECEPTOR ANTAGONISTS” (priority 2009, published 2012).

The pIC50 is the negative decadic logarithm of the IC50, by convention in mol/L.

Test [1] has as its target T1, human orexin-1 receptor (Homo sapiens, UniProt O43613).
T1 construct: expressed in transfected cells; host or cells: CHO (Chinese hamster ovary) cells, kept under G418
T1 sequence (O43613 1-425): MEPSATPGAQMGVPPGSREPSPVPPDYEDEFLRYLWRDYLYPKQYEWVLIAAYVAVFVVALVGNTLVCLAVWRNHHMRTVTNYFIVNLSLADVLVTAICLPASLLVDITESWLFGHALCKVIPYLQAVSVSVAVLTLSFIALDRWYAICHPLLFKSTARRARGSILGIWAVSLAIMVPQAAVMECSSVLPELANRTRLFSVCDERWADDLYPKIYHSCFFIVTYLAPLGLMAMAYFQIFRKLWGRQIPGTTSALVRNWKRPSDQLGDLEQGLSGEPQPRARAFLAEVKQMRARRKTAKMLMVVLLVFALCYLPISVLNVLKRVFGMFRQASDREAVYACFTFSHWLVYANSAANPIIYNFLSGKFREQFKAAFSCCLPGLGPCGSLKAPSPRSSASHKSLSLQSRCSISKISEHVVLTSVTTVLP
Nature of the test: FLIPR intracellular calcium assay, orexin receptor antagonistic activity (OX1). The format is cell-based. The settings on record: CHO cells expressing human orexin-1 receptor; 3 nM orexin-A; normalized to on-plate reference; *n = geometric mean from n values. As to the method: (§1) The orexin receptor antagonistic activity of the compounds of formula (I) is determined in accordance with the following experimental method.
(§2) Chinese hamster ovary (CHO) cells expressing the human orexin-1 receptor and the human orexin-2 receptor, respectively, are grown in culture medium (Ham F-12 with L-Glutamine) containing 300 μg/ml G418, 100 U/ml penicillin, 100 μg/ml streptomycin and 10% heat inactivated fetal calf serum (FCS). The cells are seeded at 20′000 cells/well into 384-well black clear bottom sterile plates (Greiner). The seeded plates are incubated overnight at 37° C. in 5% CO2.
(§3) Human orexin-A as an agonist is prepared as 1 mM stock solution in MeOH:water (1:1), diluted in HBSS containing 0.1% bovine serum albumin (BSA), NaHCO3: 0.375 g/l and 20 mM HEPES for use in the assay at a final concentration of 3 nM.
(§4) Antagonists are prepared as 10 mM stock solution in DMSO, then diluted in 384-well plates using DMSO followed by a transfer of the dilutions into in HBSS containing 0.1% bovine serum albumin (BSA), NaHCO3: 0.375 g/l and 20 mM HEPES. On the day of the assay, 50 μl of staining buffer (HBSS containing 1% FCS, 20 mM HEPES, NaHCO3: 0.375 g/l, 5 mM probenecid (Sigma) and 3 μM of the fluorescent calcium indicator fluo-4 AM (1 mM stock solution in DMSO, containing 10% pluronic) is added to each well. The 384-well cell-plates are incubated for 50 min at 37° C. in 5% CO2 followed by equilibration at rt for 30-120 min before measurement.
(§5) Within the Fluorescent Imaging Plate Reader (FLIPR Tetra, Molecular Devices), antagonists are added to the plate in a volume of 10 μl/well, incubated for 10 min and finally 10 μl/well of agonist is added. Fluorescence is measured for each well at 1 second intervals, and the height of each fluorescence peak is compared to the height of the fluorescence peak induced by 3 nM orexin-A with vehicle in place of antagonist. For each antagonist, the IC50 value (the concentration of compound needed to inhibit 50% of the agonistic response) is determined and normalized using the obtained IC50 value of a on-plate reference compound. Optimized conditions were achieved by adjustment of pipetting speed and cell splitting regime. The calculated IC50 values of the compounds may fluctuate depending on the daily cellular assay performance. Fluctuations of this kind are known to those skilled in the art.
In general terms: Calcium flux is commonly read through the fluorescence of an indicator in the cells.

The target in test [2] is T2, human orexin-2 receptor (Homo sapiens, UniProt O43614).
T2 construct: expressed in transfected cells; host or cells: CHO (Chinese hamster ovary) cells, kept under G418
T2 sequence (O43614 1-444): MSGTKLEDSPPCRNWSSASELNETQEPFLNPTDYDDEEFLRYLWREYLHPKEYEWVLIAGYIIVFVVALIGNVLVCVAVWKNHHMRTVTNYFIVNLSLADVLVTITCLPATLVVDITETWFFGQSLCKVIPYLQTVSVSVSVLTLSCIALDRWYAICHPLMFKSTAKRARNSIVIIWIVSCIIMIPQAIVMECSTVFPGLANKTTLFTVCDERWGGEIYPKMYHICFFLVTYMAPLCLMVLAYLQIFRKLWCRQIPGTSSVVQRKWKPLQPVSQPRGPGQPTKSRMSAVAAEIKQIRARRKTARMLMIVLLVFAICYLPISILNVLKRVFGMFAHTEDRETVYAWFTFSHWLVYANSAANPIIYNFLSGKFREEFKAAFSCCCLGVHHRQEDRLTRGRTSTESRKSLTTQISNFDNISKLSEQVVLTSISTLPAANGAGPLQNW
The test can be described thus: FLIPR intracellular calcium assay, orexin receptor antagonistic activity (OX2). The format is cell-based. The settings on record: CHO cells expressing human orexin-2 receptor; 3 nM orexin-A; normalized to on-plate reference; *n = geometric mean from n values. Here is the method: as §1, §2, §3, §4, §5

pIC50: −log10 of the molar value.

On to `COc1ccc(CN2C(=O)CSC2c2c(OC)cccc2OC)cc1` (stereo not drawn) [Example 1, 2-(2,6-Dimethoxy-phenyl)-3-(4-methoxy-benzyl)-thiazolidin-4-one], for which the pIC50 in test [1] was 6.51; in test [2], 6.98.

For the compound `CCOc1ccccc1C1SCC(=O)N1Cc1cccc(OC(F)(F)F)c1` (stereo not drawn) [Example 81, 2-(2-Ethoxy-phenyl)-3-(3-trifluoromethoxy-benzyl)-thiazolidin-4-one], the pIC50 in test [1] is 5.64; in test [2], 7.89.

Turning to `CCOc1ccc(CN2C(=O)CSC2c2c(OC)ccc3c(C)noc23)cc1` (stereo not drawn) [Example 19, 3-(4-Ethoxy-benzyl)-2-(6-methoxy-3-methyl-benzo[d]isoxazol-7-yl)-thiazolidin-4-one], the pIC50 in test [1] was 5.09; in test [2], 6.82.

As to `COc1cccc(OC)c1C1SCC(=O)N1Cc1ccc(Oc2cccc(C)n2)cc1` (stereo not drawn) [Example 283, 2-(2,6-Dimethoxy-phenyl)-3-[4-(6-methyl-pyridin-2-yloxy)-benzyl]-thiazolidin-4-one], the pIC50 in test [1] is 6.03; in test [2] it was 7.29.

As to `CCOc1ccc(CN2C(=O)C(C)SC2c2c(OC)cccc2OC)cc1` (stereo not drawn) [Example 13, 2-(2,6-Dimethoxy-phenyl)-3-(4-ethoxy-benzyl)-5-methyl-thiazolidin-4-one], the pIC50 in test [1] was 6.61; in test [2] it was 7.37.

Turning to “2-[2-(2-Hydroxy-ethoxy)-6-methoxy-phenyl]-3-(4-trifluoromethoxy-benzyl)-thiazolidin-4-one [Example 268]”, the pIC50 is 5.74 in test [1] and 7.35 in test [2].

Regarding `COc1cccc(OC)c1C1SCC(=O)N1Cc1ccc2ccccc2c1` (stereo not drawn) [Example 8, 2-(2,6-Dimethoxy-phenyl)-3-naphthalen-2-ylmethyl-thiazolidin-4-one], the pIC50 is 7.08 in test [1] and 7.64 in test [2].

`CCOc1ccc(CN2C(=O)CSC2c2c(OC)ccc3c2OCCO3)cc1` (stereo not drawn) [Example 9, 3-(4-Ethoxy-benzyl)-2-(6-methoxy-2,3-dihydro-benzo[1,4]dioxin-5-yl)-thiazolidin-4-one]: the pIC50 in test [1] is 6.49; in test [2], 7.41.

On to `COc1ccc2cc(CN3C(=O)CSC3c3c(OC)cccc3OC)ccc2c1` (stereo not drawn) [Example 32, 2-(2,6-Dimethoxy-phenyl)-3-(6-methoxy-naphthalen-2-ylmethyl)-thiazolidin-4-one], for which the pIC50 in test [1] is 7.82; in test [2] it was 8.22.

On to `COc1ccc2c(c1C1SCC(=O)N1Cc1ccc(OC(F)(F)F)cc1)OCCO2` (stereo not drawn) [Example 10, 2-(6-Methoxy-2,3-dihydro-benzo[1,4]dioxin-5-yl)-3-(4-trifluoromethoxy-benzyl)-thiazolidin-4-one], for which the values for the pIC50 in test [1] and in test [2] were 6.84 and 7.80, respectively.

On to `CCOc1ccc(CN2C(=O)CSC2c2c(OC)ccc3c2OCO3)cc1` (stereo not drawn) [Example 11, 3-(4-Ethoxy-benzyl)-2-(5-methoxy-benzo[1,3]dioxol-4-yl)-thiazolidin-4-one], for which the pIC50 in test [1] is 6.05; in test [2], 7.34.

For `COc1cccc(OC)c1C1SCC(=O)N1Cc1ccc(Oc2ccc(C)cn2)cc1` (stereo not drawn) [Example 281, 2-(2,6-Dimethoxy-phenyl)-3-[4-(5-methyl-pyridin-2-yloxy)-benzyl]-thiazolidin-4-one], the pIC50 in test [1] is 6.11; in test [2], 7.21.

As to `COc1cccc(OCCO)c1C1SCC(=O)N1Cc1ccc(OC(F)(F)F)cc1` (stereo not drawn) [Example 267, 2-[2-(2-Hydroxy-ethoxy)-6-methoxy-phenyl]-3-(4-trifluoromethoxy-benzyl)-thiazolidin-4-one], the negative logarithm of the IC50 (pIC50) in test [1] is 6.58; in test [2], 7.62.

As to `COc1cccc(OC)c1C1SCC(=O)N1Cc1ccc(-c2ccccc2)cc1` (stereo not drawn) [Example 203, 3-Biphenyl-4-ylmethyl-2-(2,6-dimethoxy-phenyl)-thiazolidin-4-one], the pIC50 in test [1] was 5.74; in test [2] it was 6.90.

On to `CCOc1ccc(CN2C(=O)CSC2c2c(OC)cccc2OC)cc1` (stereo not drawn) [Example 6, 2-(2,6-Dimethoxy-phenyl)-3-(4-ethoxy-benzyl)-thiazolidin-4-one], for which the results for the pIC50 in test [1] and in test [2] were 6.85 and 7.62, respectively.
